Where a name gives a salt, the structure may show the parent alone.
What was measured:
[1] = system: osteosarcoma cell line MG-63; design: method as in Edin et al. [38]; conditions: MG-63 in vitro; ref Edin et al. [38]; cited from earlier work
[2] = system: Staphylococcus aureus Xen 36; assay: In-vivo infection prevention study: microbiological analysis of explanted tissue
Method: Bioluminescent strain Staphylococcus aureus Xen 36 (Caliper LifeSciences, Alameda, CA) was used to develop bone infection. The strain was stored in a glycerol (20% v/v) and Brain Heart Infusion (BHI) suspension at -80°C until required. Bacteria were subcultured onto an LB plate (Luria-Bertani, Miller broth mixed with 1.2% (w/v) Technical Agar (Difco, Sparks, MD.)), at 37°C overnight. Five colonies were then transferred to 3 mL LB broth and grown in shaker incubator (200 rpm), at 37°C for 2.5 h. Two milliliters of the bacterial suspension was transferred to 100 mL LB broth and grown for a further 4 h, until the cells reached exponential growth. Bacterial suspension was transferred into 50 mL centrifuge tubes and cells centrifuged at ~3,000 rpm for 30 min. Supernatants were discarded and pellets were re-suspended in 15 mL Phosphate Buffered Saline (PBS). Cells were then mixed by vortexing and the centrifugation process was repeated. This cell washing process was repeated three times. The final washed and pelleted cells were re-suspended in a total of 10 mL PBS, and mixed by vortexing. The cell suspension was then ten-fold serially diluted. The concentration of the cell suspension was then determined using the spread plate technique and spreading 100 μL of the various dilutions onto LB plates, in duplicate. Plates were incubated at 37°C overnight before counting colony forming units (CFU). The viable count was then used to dilute the washed cell suspension to the desired concentrations (i.e., average Log10 7.82 CFU/mL or 6.62x10^7 CFU/mL) using PBS. Two hundred microliter aliquots were dispensed into microfuge tubes and labeled bacterial inoculum. To inoculate the rat tibias the bacterial inoculum was mixed with equal volume of 1% (w/v) molten agarose (Pulsed field certified agarose, Biorad, Hercules, CA). Mixing the bacteria with agarose helped to control seepage of the inoculum and minimize contamination of the surrounding muscle.
After sacrificing the rats, the tibia and gastrocnemius muscle surrounding the surgical site were explanted, weighed separately and flash frozen with liquid nitrogen prior to pulverizing in a freezer mill (6770 Spex SamplePrep, Metuchen, NJ.). The powdered samples were then re-weighed, suspended (i.e., 1:10) in phosphate buffered saline (PBS), vortexed, and 10-fold serially diluted before plating (in duplicate) 100 μL of suspensions onto LB plates (Luria-Bertani, Miller broth mixed with 1.2% (w/v) Technical Agar (Difco, Sparks, MD.)). Plates were incubated at 37°C for 18–24 h and the bacterial load (colony forming units) per sample was calculated based on the number of colonies seen at specific dilutions. Confirmation of isolating S. aureus Xen 36 colonies from samples was determined using the IVIS (Lumina II, Caliper Life Science, Hopkinton, MA.). Non-bioluminescent colonies were confirmed as S. aureus using Gram staining, catalase test and Color Staph ID kit (Sure-Vue, Fisher Scientific, Houston TX.).

[3] = system: human corneal endothelial cells; design: method as in Yoeruek et al. [40]; conditions: ref Yoeruek et al. [40]; cited from earlier work
[4] = system: chondrocyte (N1511) cells; design: method as in Antoci et al. [39]; conditions: ref Antoci et al. [39]; cited from earlier work

CN[C@H](CC(C)C)C(=O)N[C@H]1C(=O)N[C@@H](CC(N)=O)C(=O)N[C@H]2C(=O)N[C@H]3C(=O)N[C@H](C(=O)N[C@H](C(=O)O)c4cc(O)cc(O)c4-c4cc3ccc4O)[C@H](O)c3ccc(c(Cl)c3)Oc3cc2cc(c3O[C@@H]2O[C@H](CO)[C@@H](O)[C@H](O)[C@H]2O[C@H]2C[C@](C)(N)[C@H](O)[C@H](C)O2)Oc2ccc(cc2Cl)[C@H]1O [vancomycin, vancomycin hydrochloride]
Vancomycin concentration that caused cell death [1]: 10 mg/mL | Viable bacteria in tibia of treated rats ([2]; rat tibia inoculated with S. aureus Xen 36, single 25 mg/Kg intramedullary dose, end of 14-day study): < 200 CFU/g | Signs of infection around the surgical site ([2]; rat, S. aureus Xen 36, prophylactic single 25 mg/Kg intramedullary dose, 14 days): no signs of infection | Bacteria in the muscle and plasma samples of treated rats ([2]; rat, S. aureus Xen 36, single 25 mg/Kg intramedullary dose, end of study): No bacteria were detected | Ave Log10 CFU/muscle ([2]; treated rats, explanted muscle at end of 14-day study, mean of n = 9, values of 100 CFU = below detection limit): 2.00 Log10 CFU/muscle | Ave Log10 CFU/tibia ([2]; treated rats, explanted tibia at end of 14-day study, mean of n = 9, values of 100 CFU = below detection limit): 2.09 Log10 CFU/tibia | Log10 CFU/tibia ([2]; treated, end of study, rat K-11, 2.00 = below detection limit): 2.81 Log10 CFU/tibia | Vancomycin concentrations leading to near total destruction [3]: over 10 mg/mL | Vancomycin concentrations leading to significant reductions in viability [3]: higher than 5 mg/mL | Doses that severely decreased cellular proliferation [4]: greater than 2 mg/mL

Source: paper PMC4966941 (PLoS ONE, 2016)
